Our source for the Kd values is BindingDB's records for doi:10.1016/j.ejmech.2015.04.052 (University of Barcelona, 2015).

Test [1] in a line: Displacement of [3H]-YM09151-2 from dopamine D2 receptor (unknown origin) expressed in sheep striatum membranes assessed as high affinity constant after 2 hrs by scintillation counting analysis. (In general: Displacement assays read how much labelled ligand stays bound in the presence of the test substance.)
Test [2] can be described thus: Displacement of [3H]-YM09151-2 from dopamine D2 receptor (unknown origin) expressed in sheep striatum membranes assessed as low affinity constant after 2 hrs by scintillation counting analysis.
Test [3] is described as follows: Displacement of [3H]-SCH23390 from dopamine D1 receptor (unknown origin) expressed in sheep striatum membranes after […] by scintillation counting analysis.
The nature of test [4]: Displacement of [3H]-R-PIA from adenosine A1 receptor (unknown origin) expressed in sheep striatum membranes after 2 hrs by scintillation counting analysis.

SMILES strings stand for the structures. A value given as a limit tells only on which side of the number the result lay.

One may read the Kd as the constant that tells how readily two partners part at equilibrium. Take `CCCC[C@H](NC(=O)[C@H]1CC[C@@H]2c3[nH]c4ccccc4c3CCN2C1)C(=O)N[C@@H](Cc1ccc(F)c(F)c1)C(=O)N[C@@H](CCCCN)C(N)=O`: the Kd is 190 nM in test [1], 8000 nM in test [2], 1300 nM in test [3] and above 100000 nM in test [4].
As for `CCCC[C@H](NC(=O)[C@H]1CC[C@@H]2c3[nH]c4ccccc4c3CCN2C1)C(=O)N[C@@H](Cc1ccc(O)cc1)C(=O)N[C@@H](CCCCN)C(N)=O`, the Kd in test [1] is 4700 nM; in test [3] it was 1200 nM; in test [4], above 100000 nM.
